The source made the active and inactive calls. The rule behind the calls is not given here.
Key:
[1] = system: Mus musculus; experiment: Anti-inflammatory activity in C57BL/6 mouse model of DSS-induced ulcerative colitis assessed as colon length at 40 mg/kg, po administered for 8 days (reference value: 5.1 cm); assay type: functional, organism-based; conditions: time 8.0 day
[2] = molecular target: T1, Interleukin-1 receptor-associated kinase 4 (Homo sapiens) (UniProt Q9NWZ3); experiment: Inhibition of IRAK4 (unknown origin) at 10 uM relative to control
T1 sequence (whole entry): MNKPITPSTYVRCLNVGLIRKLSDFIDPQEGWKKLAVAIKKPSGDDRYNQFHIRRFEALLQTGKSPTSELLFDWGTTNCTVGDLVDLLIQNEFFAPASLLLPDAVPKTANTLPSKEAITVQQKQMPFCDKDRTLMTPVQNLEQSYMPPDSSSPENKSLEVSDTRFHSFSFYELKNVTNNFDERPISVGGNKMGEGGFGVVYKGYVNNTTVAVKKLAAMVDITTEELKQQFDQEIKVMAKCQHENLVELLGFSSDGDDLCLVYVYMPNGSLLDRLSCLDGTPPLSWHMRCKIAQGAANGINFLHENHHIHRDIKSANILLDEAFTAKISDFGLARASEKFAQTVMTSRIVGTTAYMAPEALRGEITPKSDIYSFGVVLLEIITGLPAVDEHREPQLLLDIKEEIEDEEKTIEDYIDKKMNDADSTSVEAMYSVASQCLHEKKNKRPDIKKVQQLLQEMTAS

[3] = Acute toxicity in C57BL/6 mouse assessed as change in pathological change in heart at 100 to 200 mg/kg, po measured for 10 days by H and E staining based analysis; assay type: organism-based; conditions: in vivo, 240 h, dose 100-200 mg/kg, time 10 day
[4] = system: Mus musculus; experiment: Anti-inflammatory activity in C57BL/6 mouse model of LPS-induced ALI assessed as inhibition of TNF-alpha level in serum at 20 mg/kg, po measured after 6 hrs with administered on every 12 hrs followed by LPS treatment after 30 mins post-compound treatment by ELISA; assay type: functional, organism-based; conditions: time 6.5 hrs
[5] = system: Mus musculus; experiment: Anti-inflammatory activity in C57BL/6 mouse model of DSS-induced ulcerative colitis assessed as decrease in DAI score at 20 to 40 mg/kg, po administered for 8 days; assay type: functional, organism-based; conditions: dose 20-40 mg/kg, time 8.0 day
[6] = system: Mus musculus; experiment: Anti-inflammatory activity in C57BL/6 mouse model of LPS-induced ALI assessed as decrease in total cell count in BALF at 20 mg/kg, po measured after 6 hrs with administered on every 12 hrs followed by LPS treatment after 30 mins post-compound treatment; assay type: functional, organism-based; conditions: time 6.5 hrs
[7] = system: Mus musculus; experiment: Anti-inflammatory activity in C57BL/6 mouse model of LPS-induced ALI assessed as decrease in thickening of alveolar septa in lung tissue at 20 mg/kg, po measured after 6 hrs with administered on every 12 hrs followed by LPS treatment after 30 mins post-compound treatment by H and E/IHC staining based analysis; assay type: functional, organism-based; conditions: time 6.5 hrs
[8] = system: Mus musculus; experiment: Anti-inflammatory activity in C57BL/6 mouse model of DSS-induced ulcerative colitis assessed as colon length at 20 mg/kg, po administered for 8 days (reference value: 5.1 cm); assay type: functional, organism-based; conditions: time 8.0 day
[9] = Acute toxicity in C57BL/6 mouse assessed as change in pathological change in kidney at 100 to 200 mg/kg, po measured for 10 days by H and E staining based analysis; assay type: organism-based; conditions: in vivo, 240 h, dose 100-200 mg/kg, time 10 day
[10] = system: Mus musculus; experiment: Anti-inflammatory activity in C57BL/6 mouse model of DSS-induced ulcerative colitis assessed as decrease in inflammatory cell infiltration in colonic tissue at 20 to 40 mg/kg, po administered for 8 days […]; assay type: functional, organism-based; conditions: dose 20-40 mg/kg, time 8.0 day
[11] = system: Mus musculus; experiment: Anti-inflammatory activity in C57BL/6 mouse model of DSS-induced ulcerative colitis assessed as decrease in spleen weight at 20 to 40 mg/kg, po administered for 8 days; assay type: functional, organism-based; conditions: dose 20-40 mg/kg, time 8.0 day
[12] = system: RAW264.7; experiment: Inhibition of MAPK signalling pathway in mouse RAW264.7 cells assessed as reduction in JNK phosphorylation at 2.5 uM preincubated for 2 hrs followed by LPS addition measured after 30 mins by Western blot analysis; assay type: cell-based; conditions: time 2.5 hrs
[13] = AUC (0 to t) in Sprague-Dawley rat at 10 mg/kg, po measured for 24 hrs; assay type: ADME, organism-based; conditions: in vivo
[14] = Acute toxicity in C57BL/6 mouse assessed as change in pathological change in spleen at 100 to 200 mg/kg, po measured for 10 days by H and E staining based analysis; assay type: organism-based; conditions: in vivo, 240 h, dose 100-200 mg/kg, time 10 day
[15] = Half life in Sprague-Dawley rat at 1 mg/kg, iv measured for 24 hrs; assay type: ADME, organism-based; conditions: in vivo
[16] = system: Mus musculus; experiment: Anti-inflammatory activity in C57BL/6 mouse model of DSS-induced ulcerative colitis assessed as decrease in fusion of white pulp of spleen administered orally for 8 days; assay type: functional, organism-based; conditions: dose 20-40 mg/kg, route po, time 8.0 day
[17] = system: Mus musculus; experiment: Anti-inflammatory activity in C57BL/6 mouse model of DSS-induced ulcerative colitis assessed as decrease in serum IL-6 level at 20 to 40 mg/kg, po administered for 8 days by ELISA; assay type: functional, organism-based; conditions: dose 20-40 mg/kg, time 8.0 day
[18] = system: RAW264.7; experiment: Anti-inflammatory activity in mouse RAW264.7 cells assessed as inhibition of LPS-induced IL-6 mRNA level preincubated for 2 hrs followed by LPS addition measured after 6 hrs by RT-qPCR analysis; assay type: functional, cell-based; conditions: dose 1-4 µM, time 8.0 hrs
[19] = system: Mus musculus; experiment: Anti-inflammatory activity in C57BL/6 mouse model of DSS-induced ulcerative colitis assessed as decrease in inflammatory cell infiltration in splenic tissue at 20 to 40 mg/kg, po administered for 8 days […]; assay type: functional, organism-based; conditions: dose 20-40 mg/kg, time 8.0 day
[20] = system: RAW264.7; experiment: cells; conditions: Mus musculus
Description: Anti-inflammatory activity in mouse RAW264.7 cells assessed as inhibition of LPS-induced IL-6 level preincubated for 30 mins followed by LPS addition measured after 24 hrs by ELISA

[21] = system: Mus musculus; experiment: Anti-inflammatory activity in C57BL/6 mouse model of LPS-induced ALI assessed as inhibition of TNF-alpha level in BALF at 20 mg/kg, po measured after 6 hrs with administered on every 12 hrs followed by LPS treatment after 30 mins post-compound treatment by ELISA; assay type: functional, organism-based; conditions: time 6.5 hrs
[22] = system: Mus musculus; experiment: Anti-inflammatory activity in C57BL/6 mouse model of LPS-induced ALI assessed as decrease in spleen weight at 20 mg/kg, po measured after 6 hrs with administered on every 12 hrs followed by LPS treatment after 30 mins post-compound treatment; assay type: functional, organism-based; conditions: time 6.5 hrs
[23] = Tmax in Sprague-Dawley rat at 1 mg/kg, iv measured for 24 hrs; assay type: ADME, organism-based; conditions: in vivo
[24] = organism: Homo sapiens; experiment: Inhibition of TAK1 (unknown origin) at 10 uM relative to control
[25] = molecular target: Interleukin-1 receptor-associated kinase 1 (Homo sapiens) (UniProt P51617); experiment: Inhibition of IRAK1 (unknown origin) at 10 uM relative to control
Chain of Interleukin-1 receptor-associated kinase 1 (Homo sapiens) (P51617 whole entry, looked up): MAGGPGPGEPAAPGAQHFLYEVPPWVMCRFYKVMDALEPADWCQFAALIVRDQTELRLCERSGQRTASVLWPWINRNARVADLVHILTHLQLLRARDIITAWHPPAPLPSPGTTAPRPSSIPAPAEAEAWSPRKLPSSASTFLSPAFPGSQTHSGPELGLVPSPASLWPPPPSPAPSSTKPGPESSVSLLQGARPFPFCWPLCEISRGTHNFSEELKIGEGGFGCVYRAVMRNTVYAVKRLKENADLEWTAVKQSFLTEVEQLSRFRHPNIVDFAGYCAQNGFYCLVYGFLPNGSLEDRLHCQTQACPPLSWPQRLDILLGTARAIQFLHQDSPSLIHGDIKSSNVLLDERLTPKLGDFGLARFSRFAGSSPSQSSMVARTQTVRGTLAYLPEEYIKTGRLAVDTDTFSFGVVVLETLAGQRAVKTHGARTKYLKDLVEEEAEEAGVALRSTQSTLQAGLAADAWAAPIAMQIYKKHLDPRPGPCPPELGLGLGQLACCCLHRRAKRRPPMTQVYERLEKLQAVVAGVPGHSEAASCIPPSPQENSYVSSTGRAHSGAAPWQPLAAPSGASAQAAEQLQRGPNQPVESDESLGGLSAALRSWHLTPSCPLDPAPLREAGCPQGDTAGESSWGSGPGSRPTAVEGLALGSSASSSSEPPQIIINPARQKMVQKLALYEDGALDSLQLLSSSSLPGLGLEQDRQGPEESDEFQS

[26] = system: Mus musculus; experiment: Anti-inflammatory activity in C57BL/6 mouse model of LPS-induced ALI assessed as inhibition of IL-6 level in serum at 20 mg/kg, po measured after 6 hrs with administered on every 12 hrs followed by LPS treatment after 30 mins post-compound treatment by ELISA; assay type: functional, organism-based; conditions: time 6.5 hrs
[27] = system: Mus musculus; experiment: Anti-inflammatory activity in C57BL/6 mouse model of DSS-induced ulcerative colitis assessed as colon length at 100 mg/kg, po administered for 8 days (reference value: 5.1 cm); assay type: functional, organism-based; conditions: time 8.0 day
[28] = Acute toxicity in C57BL/6 mouse assessed as change in daily activities at 100 to 200 mg/kg, po measured for 10 days; assay type: organism-based; conditions: in vivo, 240 h, dose 100-200 mg/kg, time 10 day

COc1cc2c(O[C@H]3CC[C@@H](N)CC3)ncnc2cc1OCc1cccc(Br)c1
Activity [1]: Active | inhibition [2]: 100% | Activity [3]: Non-toxic | inhibition [4]: Active | Activity [5]: Active | Activity [6]: Active | Activity [7]: Active | Activity [8]: Active | Activity [9]: Non-toxic | Activity [10]: Active | Activity [11]: Active; Activity Was Comparable To 5-Asa | inhibition [12]: Active | AUC(0-t) at 24 h [13]: 4270 ng·h/mL | Activity [14]: Non-toxic | half-life [15]: 106 min | Activity [16]: Dose-dependent-effect | Activity [17]: Active; Activity Was Comparable To 5-Asa | inhibition [18]: Dose-dependent-effect | Activity [19]: Active | IC50 [20]: 480 nM | inhibition [21]: Active | Activity [22]: Active | Tmax [23]: 4.8 min | inhibition [24]: 4.42% | inhibition [25]: 88.2% | inhibition [26]: Active | Activity [27]: Active | Activity [28]: Non-toxic

Reference: ChEMBL document CHEMBL6109094, “Anti-inflammatory agents design via the fragment hybrid strategy in the discovery of compound c1 for treating ALI and UC” (Eur J Med Chem, 2025)
